Data reported in US9067983B2, “Anti-inflammatory antibodies and uses therefor” (DecImmune Therapeutics, Inc., priority 2009, dated 2015).
No end group written: not given here.

Test system: RAG-1-/- mice
Test: human IgM-mediated myocardial injury in RAG-1-/- mice (1 h LAD occlusion, 24 h reperfusion)
Assay type: in vivo, mouse
Conditions: 400 μg hIgM i.v. with 200 μg N2 peptide or 150 μg F(ab')2, 15 min prior to occlusion; FIG. 4
Procedure: Prior to occlusion (15 min), 400 μg of pooled individual hIgM from 10 donors was injected i.v. into the mice with either saline or 200 μg of N2 peptide. Myocardial sections were stained with Evans blue and TTC. Myocardial infarct size is expressed as a percentage infarct of the area at risk (AAR) of the left ventricle. (B and C) RAG-1−/− mice were treated as in (A) and analyzed for hIgM deposition (B) or serum troponin-I levels (C). (D) RAG-1−/− mice were subjected to 1 h LAD occlusion and 24 h reperfusion. Prior to occlusion (15 min), 400 μg hIgM was injected i.v. into the mice with either saline or 150 μg of anti-N2 F(ab′)2 antibody (21G6) and myocardial sections were analyzed as in (A). (E) RAG-1−/− mice were treated as in (D) and analyzed for hIgM deposition. In all panels, statistical significance was evaluated by Student's t test.

Ac-LMKNMDPLNDNV (listed as Mus sp.) [N2 peptide, self-peptide, amino acids 592-603 of Mouse NMHC-IIB]
human IgM-mediated injury (infarct size, hIgM deposition, serum troponin-I): block human IgM-mediated injury
